SMILES strings stand for the structures.

A short description of the data set: Lipid maldigestion/malabsorption animal model obtained with Orlistat: EPA incorporation in red blood cells, plasma lipids and tissues. The data set is classed as in vivo, rats. The conditions noted are these: comparison between the groups receiving fish oil with or without Orlistat; day 7. From the text:
Treatments: Control rats fed fish oil with or without Orlistat and rats fed NAG derivatives described in FIGS. 1A and 1B. Values are means±SEM (n=6).
The inventors tested their concept in a lipid malabsorption animal model. The lipid maldigestion/malabsorption conditions were obtained using Orlistat®, a well known pancreatic and gastric lipases inhibitor. Animals were fed with long-chain polyunsaturated fatty acid (LC-PUFA) supplements containing mainly eicosapentaenoic (EPA) acid. Fish oil was used as a source of triacylglycerols and different EPA glycerides, for example those of FIGS. 1A and 1B, were evaluated. At different time intervals the fatty acid profile of red blood cells and plasma lipids was assessed. At the end of the experiment, fatty acid profiles of different tissues were determined. […]
The concept was tested in a lipid maldigestion or malabsorption animal model. […] Fish oil was used as a source of triacylglycerols and the different EPA glycerides provided in FIGS. 1A and 1B were evaluated. […] At the end of the experiment, fatty acid profiles of different tissues were determined.
The main objective was to follow the level of EPA in red blood cell and plasma lipids. The main comparison evaluated was the difference in EPA level between groups receiving EPA derivatives (FIGS. 1A and 1B) in combination with Orlistat and the […] control group (fish oil+Orlistat).

For the compound `CCCCCCCCCCC[C@@H](C[C@@H]1OC(=O)[C@H]1CCCCCC)OC(=O)[C@H](CC(C)C)NC=O` [Orlistat], the “EPA incorporation in red blood cells” value is reported as “decrease EPA incorporation in red blood cells”.

(Values after US10039742B2, “Sn-2-monoacylglycerols and lipid malabsorption” (Nestec S.A., priority 2010, dated 2018).)
